Test [1] deals with His6-ERα298-554 WT (ERα ligand-binding domain) (Homo sapiens (Human), UniProt P03372). The test can be described thus: Test A: biochemical antagonist activity, LanthaScreen TR-FRET ERα coactivator assay, WT. As to conditions: read-out: Antagonism WT IC50. The method, boiled down: (§1)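 Compounds were added to receptor LBD (0.5 nM), terbium-labelled His6 antibody (0.5 nM), PGC1a coactivator peptide (250 nM) and estradiol at 3 nM or 10 nM. After incubating overnight at room temperature, the 520:495 nm ratio gave IC50 values by four-parameter logistic regression.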
His6-ERα298-554 WT (ERα ligand-binding domain), sequence (P03372 298-554): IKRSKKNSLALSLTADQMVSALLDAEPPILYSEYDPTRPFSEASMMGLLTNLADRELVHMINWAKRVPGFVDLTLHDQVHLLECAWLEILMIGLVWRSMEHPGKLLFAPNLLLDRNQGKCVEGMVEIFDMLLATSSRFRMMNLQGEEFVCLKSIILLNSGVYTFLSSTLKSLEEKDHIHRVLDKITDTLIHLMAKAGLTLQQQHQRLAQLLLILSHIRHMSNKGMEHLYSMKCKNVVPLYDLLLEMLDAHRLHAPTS

In test [2] the target is His6-ERα298-554 D538G mutant (ERα ligand-binding domain) (Homo sapiens (Human), UniProt P03372, D538G). The test can be described thus: Test A: biochemical antagonist activity, LanthaScreen TR-FRET ERα coactivator assay, D538G mutant. As to conditions: read-out: Antagonism D538G IC50. Summed up: as §1
His6-ERα298-554 D538G mutant (ERα ligand-binding domain), sequence (P03372 298-554 D538G): as the sequence (P03372 298-554) above, with D241G counted along it
For orientation: Time-resolved FRET reads energy transfer from a long-lived donor to a nearby acceptor.

Test [3] deals with His6-ERα298-554 Y537S mutant (ERα ligand-binding domain) (Homo sapiens (Human), UniProt P03372, Y537S). The test is described as follows: Test A: biochemical antagonist activity, LanthaScreen TR-FRET ERα coactivator assay, Y537S mutant. As to conditions: read-out: Antagonism Y537S IC50. The method, boiled down:
as §1

Test [4] relates to MCF7 cells (breast tumor cells) WT. The test is described as follows: Test B: cell proliferation/viability assay (CellTiter-Glo) on MCF7 WT. It counts as cell-based. To be noted: Homo sapiens, MCF7, 168 h, 7 days of compound exposure. The method, boiled down: (§2)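 Seven-day compound exposure, 9 concentrations from 3 to 0.000001 μM, in phenol red-free medium with 5% charcoal-stripped serum. ER Tyr537Ser and Asp538Gly lines derive from transfected MCF7 selected to grow without estradiol. Viability from CellTiter-Glo luminescence, background-corrected, as percent of untreated.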

The subject of test [5] is MCF7 cells expressing mutant estrogen receptor Tyr 537 Ser. The test is described as follows: Test B: cell proliferation/viability assay (CellTiter-Glo) on MCF7 Tyr 537 Ser mutant. It counts as cell-based. To be noted: Homo sapiens, MCF7, 168 h, MCF7 cells expressing ER Tyr 537 Ser mutant, 7 days of compound exposure, read-out: proliferation MCF7 Y537S IC50. The method, boiled down: as §2

The test system of test [6] is MCF7 cells expressing mutant estrogen receptor Asp 538 Gly. The test can be described thus: Test B: cell proliferation/viability assay (CellTiter-Glo) on MCF7 Asp 538 Gly mutant. To be noted: Homo sapiens, MCF7, 168 h, MCF7 cells expressing ER Asp 538 Gly mutant, 7 days of compound exposure, read-out: proliferation MCF7 D538G IC50. In kind it is cell-based. Summed up:
as §2
(In general: In ATP-based viability assays light output follows the ATP content of the culture.)

The target of the next test is ERα in MCF7 cells (Homo sapiens (Human), UniProt P03372). The test is described as follows: Test C: estrogen receptor degradation activity, ERα in cell western assay in MCF7 cells. As to conditions: for DC50: 4 hours post compound addition, ERα in cell western, read-out: Degradation IC50; for % Degradation at 3 μM: 4 hours, relative to fulvestrant. In kind it is cell-based. The method, boiled down:
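In-cell western: ERα level (green) against DNA stain Syto-64 (red) by integrated intensity. MCF7 cells in hormone-depleted medium exposed 4 h to compound at 3-0.000018 μM final (1:5 series); fulvestrant 0.1 μM as positive control.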

The mark [7] stands for this setting: asterisk (*): protocol using 10 nM estradiol.

Structures are written as SMILES. Read-outs that look alike come from different tables or passages of the source. Where only a bound is given, the exact number is not on record here.

ERα in MCF7 cells, sequence (P03372 whole entry): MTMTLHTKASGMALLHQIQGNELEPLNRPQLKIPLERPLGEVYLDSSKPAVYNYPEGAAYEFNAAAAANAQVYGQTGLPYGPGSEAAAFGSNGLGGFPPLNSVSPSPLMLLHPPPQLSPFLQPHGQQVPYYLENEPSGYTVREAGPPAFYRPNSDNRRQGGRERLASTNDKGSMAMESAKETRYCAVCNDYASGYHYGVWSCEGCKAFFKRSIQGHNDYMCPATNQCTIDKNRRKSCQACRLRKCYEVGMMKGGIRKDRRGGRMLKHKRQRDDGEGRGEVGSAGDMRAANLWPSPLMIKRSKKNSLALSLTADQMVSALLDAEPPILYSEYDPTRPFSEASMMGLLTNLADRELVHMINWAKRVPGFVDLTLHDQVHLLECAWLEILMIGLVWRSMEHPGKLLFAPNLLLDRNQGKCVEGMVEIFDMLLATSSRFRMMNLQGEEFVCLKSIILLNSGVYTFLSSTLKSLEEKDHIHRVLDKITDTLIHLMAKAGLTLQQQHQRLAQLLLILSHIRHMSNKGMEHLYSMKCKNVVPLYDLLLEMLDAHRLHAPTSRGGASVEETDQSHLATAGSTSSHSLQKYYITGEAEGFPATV
His6-ERα298-554 Y537S mutant (ERα ligand-binding domain), sequence (P03372 298-554 Y537S): as the sequence (P03372 298-554) above, with Y240S counted along it

With `[2H]C([2H])([2H])Oc1ccc(C2=C(c3ccc(O[C@H]4CCN(CCCF)C4)cc3)c3ccc(O)cc3SC2)c(F)c1` [Example 34, 4-[4-[(3S)-1-(3-fluoropropyl)pyrrolidin-3-yl]oxyphenyl]-3-[2-fluoro-4-(trideuteriomethoxy)phenyl]-2H-thiochromen-7-ol], the IC50 in test [1] (setting [7]) is 4 nM; in test [2] (setting [7]), 83 nM; in test [3] (setting [7]) it was 46 nM; in test [4] it was 0.5 nM; in test [5] it was 4 nM; in test [6] it was 0.5 nM. Besides, the DC50 at ERα in MCF7 cells was 0.4 nM. Moreover, the “% Degradation at 3 μM” value at ERα in MCF7 cells is listed as 85%.

Take `Oc1ccc2c(c1)SCC(c1ccc(OC(F)F)cc1F)=C2c1ccc(O[C@H]2CCN(CCCF)C2)cc1` [Example 35, 3-[4-(difluoromethoxy)-2-fluoro-phenyl]-4-[4-[(3S)-1-(3-fluoropropyl)pyrrolidin-3-yl]oxyphenyl]-2H-thiochromen-7-ol]: the IC50 in test [1] (setting [7]) came out at 16 nM; in test [2] (setting [7]), 421 nM; in test [3] (setting [7]), 220 nM; in test [4], 0.2 nM; in test [5], 2 nM; in test [6] it was 0.3 nM. Besides, the DC50 at ERα in MCF7 cells amounted to 1 nM. Further, the “% Degradation at 3 μM” value on ERα in MCF7 cells stood at 89%.

Take `CCOc1ccc(C2=C(c3ccc(O[C@H]4CCN(CCCF)C4)cc3)c3ccc(O)cc3SC2)c(Cl)c1` [Example 36, 3-(2-chloro-4-ethoxy-phenyl)-4-[4-[(3S)-1-(3-fluoropropyl)pyrrolidin-3-yl]oxyphenyl]-2H-thiochromen-7-ol]: the IC50 in test [1] (setting [7]) stood at 11 nM; in test [2] (setting [7]), 257 nM; in test [3] (setting [7]) it was 154 nM; in test [4] it was 0.5 nM; in test [5] it was 3 nM; in test [6], 0.5 nM. Further, the DC50 on ERα in MCF7 cells came out at 0.2 nM. For the same compound, the “% Degradation at 3 μM” value on ERα in MCF7 cells stood at 83%.

`Oc1ccc2c(c1)SCC(c1ccc(OC(F)(F)F)cc1F)=C2c1ccc(O[C@H]2CCN(CCCF)C2)cc1` [Example 37, 4-[4-[(3S)-1-(3-fluoropropyl)pyrrolidin-3-yl]oxyphenyl]-3-[2-fluoro-4-(trifluoromethoxy)phenyl]-2H-thiochromen-7-ol]: the IC50 in test [1] (protocol with 3 nM estradiol) was 41 nM; in test [2] (protocol with 3 nM estradiol) it was 745 nM; in test [3] (protocol with 3 nM estradiol), 475 nM; in test [4], 0.6 nM; in test [5] it was 4 nM; in test [6] it was 0.6 nM. The DC50 on ERα in MCF7 cells turned out to be 3 nM. Further, the “% Degradation at 3 μM” value on ERα in MCF7 cells is listed as 83%.

Take `O=C1COc2ccc(C3=C(c4ccc(O[C@H]5CCN(CCCF)C5)cc4)c4ccc(O)cc4SC3)cc2N1` [Example 38, 6-[4-[4-[(3S)-1-(3-fluoropropyl)pyrrolidin-3-yl]oxyphenyl]-7-hydroxy-2H-thiochromen-3-yl]-4H-1,4-benzoxazin-3-one]: the IC50 in test [1] (setting [7]) is 604 nM; in test [2] (setting [7]), over 4000 nM; in test [3] (setting [7]), 3710 nM; in test [4], 12 nM; in test [5] it was over 999 nM; in test [6], 16 nM. Also, the DC50 at ERα in MCF7 cells came to 12 nM. For the same compound, at ERα in MCF7 cells, the “% Degradation at 3 μM” value turned out to be 86%.

Consider `CCOc1ccc(C2=C(c3ccc(O[C@H]4CCN(CCCF)C4)cc3)c3ccc(O)cc3SC2)c(C)c1` [Example 39, 3-(4-ethoxy-2-methyl-phenyl)-4-[4-[(3S)-1-(3-fluoropropyl)pyrrolidin-3-yl]oxyphenyl]-2H-thiochromen-7-ol], for which the IC50 in test [1] (setting [7]) was found to be 9 nM; in test [2] (setting [7]), 221 nM; in test [3] (setting [7]) it was 127 nM; in test [4] it was 0.4 nM; in test [5], 2 nM; in test [6] it was 0.5 nM. For the same compound, at ERα in MCF7 cells, the DC50 worked out at 0.7 nM. Further, the “% Degradation at 3 μM” value on ERα in MCF7 cells was determined as 86%.

As to `CCOc1cc(F)c(C2=C(c3ccc(O[C@H]4CCN(CCCF)C4)cc3)c3ccc(O)cc3SC2)cc1F` [Example 40, 3-(4-ethoxy-2,5-difluoro-phenyl)-4-[4-[(3S)-1-(3-fluoropropyl)pyrrolidin-3-yl]oxyphenyl]-2H-thiochromen-7-ol], the IC50 in test [1] (setting [7]) came out at 44 nM; in test [2] (setting [7]), 901 nM; in test [3] (setting [7]), 605 nM; in test [4] it was 1 nM; in test [5], 20 nM; in test [6], 2 nM. The DC50 on ERα in MCF7 cells came to 0.2 nM. Also, on ERα in MCF7 cells, the “% Degradation at 3 μM” value is given as 81%.

As for `CCOc1ccc(C2=C(c3ccc(O[C@H]4CCN(CCCF)C4)cc3)c3ccc(O)cc3SC2)c(F)c1F` [Example 41, 3-(4-ethoxy-2,3-difluoro-phenyl)-4-[4-[(3S)-1-(3-fluoropropyl)pyrrolidin-3-yl]oxyphenyl]-2H-thiochromen-7-ol], the IC50 in test [1] (setting [7]) is 27 nM; in test [2] (setting [7]), 740 nM; in test [3] (setting [7]), 407 nM; in test [4], 0.9 nM; in test [5], 4 nM; in test [6], 1 nM. Also, on ERα in MCF7 cells, the DC50 was determined as 1 nM. Besides, the “% Degradation at 3 μM” value on ERα in MCF7 cells is given as 85%.

As for `NS(=O)(=O)c1ccc(C2=C(c3ccc(O[C@H]4CCN(CCCF)C4)cc3)c3ccc(O)cc3SC2)cc1` [Example 42, 4-[4-[4-[(3S)-1-(3-fluoropropyl)pyrrolidin-3-yl]oxyphenyl]-7-hydroxy-2H-thiochromen-3-yl]benzenesulfonamide], the IC50 in test [1] (setting [7]) is 674 nM; in test [2] (setting [7]) it was over 4000 nM; in test [3] (setting [7]), over 4000 nM; in test [4], 46 nM; in test [5], 809 nM; in test [6], 31 nM. The DC50 on ERα in MCF7 cells turned out to be 11 nM. The “% Degradation at 3 μM” value at ERα in MCF7 cells is 89%.

With `CCOc1cc(Cl)ccc1C1=C(c2ccc(O[C@H]3CCN(CCCF)C3)cc2)c2ccc(O)cc2SC1` [Example 43, 3-(4-chloro-2-ethoxy-phenyl)-4-[4-[(3S)-1-(3-fluoropropyl)pyrrolidin-3-yl]oxyphenyl]-2H-thiochromen-7-ol], the IC50 in test [1] (setting [7]) was determined as 96 nM; in test [2] (setting [7]), 1140 nM; in test [3] (setting [7]), 673 nM; in test [4], 0.4 nM; in test [5], 11 nM; in test [6] it was 1 nM. Also, the DC50 on ERα in MCF7 cells was found to be 0.8 nM. On ERα in MCF7 cells, the “% Degradation at 3 μM” value was 97%.

Turning to `Oc1ccc2c(c1)SCC(c1ccc(OC3COC3)cc1)=C2c1ccc(O[C@H]2CCN(CCCF)C2)cc1` [Example 44, 4-[4-[(3S)-1-(3-fluoropropyl)pyrrolidin-3-yl]oxyphenyl]-3-[4-(oxetan-3-yloxy)phenyl]-2H-thiochromen-7-ol], the IC50 in test [1] (setting [7]) was 172 nM; in test [2] (setting [7]), 2930 nM; in test [3] (setting [7]) it was 1820 nM; in test [4] it was over 999 nM; in test [5] it was over 999 nM; in test [6] it was over 999 nM. Also, at ERα in MCF7 cells, the DC50 is 8 nM. Besides, the “% Degradation at 3 μM” value at ERα in MCF7 cells was 89%.

Consider `COc1ccc(C2=C(c3ccc(O[C@H]4CCN(CCCF)C4)cc3)c3ccc(O)cc3SC2)c(F)n1` [Example 45, 3-(2-fluoro-6-methoxy-3-pyridyl)-4-[4-[(3S)-1-(3-fluoropropyl)pyrrolidin-3-yl]oxyphenyl]-2H-thiochromen-7-ol], for which the IC50 is 1 nM in test [1] (setting [7]); 34 nM in test [2] (setting [7]); 14 nM in test [3] (setting [7]); 0.1 nM in test [4]; 2 nM in test [5]; 0.6 nM in test [6]. Moreover, the DC50 on ERα in MCF7 cells came out at 0.2 nM. Moreover, the “% Degradation at 3 μM” value on ERα in MCF7 cells amounted to 87%.

Take `Oc1ccc2c(c1)SCC(c1ccc(O)nc1F)=C2c1ccc(O[C@H]2CCN(CCCF)C2)cc1` [Example 46, 6-fluoro-5-[4-[4-[(3S)-1-(3-fluoropropyl)pyrrolidin-3-yl]oxyphenyl]-7-hydroxy-2H-thiochromen-3-yl]pyridin-2-ol]: the IC50 in test [1] (setting [7]) was found to be 5 nM; in test [2] (setting [7]), 101 nM; in test [3] (setting [7]) it was 59 nM; in test [4], 0.1 nM; in test [5], 2 nM; in test [6] it was 0.5 nM. For the same compound, the DC50 at ERα in MCF7 cells is 0.2 nM. At ERα in MCF7 cells, the “% Degradation at 3 μM” value stood at 83%.

The values above are taken from patent US11149031B2, “Substituted N-(3-fluoropropyl)-pyrrolidine compounds, processes for their preparation and therapeutic uses thereof” (SANOFI, priority 2016, dated 2021).
